Source: patent publication US20110195951A1, “DIAZAINDOLE DERIVATIVES AND THEIR USE IN THE INHIBITION OF C-JUN N-TERMINAL KINASE” (EISAI R&D MANAGEMENT CO., LTD., priority 2008, published 2011)

Biological target: JNK3 (Homo sapiens, UniProt P53779)
Assay: JNK3 SPA assay (phosphorylation of GST-c-Jun)
Type: biochemical
Conditions: 3.33 μM ATP, GST-c-Jun substrate, 30 minutes at room temperature, read-out: IC50 values for compounds (I) against JNK3
Protocol: JNK1, JNK2, JNK3—SPA Assay
• 1. The compound was dissolved in DMSO to a convenient concentration and this was diluted in 10% DMSO to a five times concentrate of the desired starting concentration (frequently 1:100). • 2. 10 μl of 500 mM EDTA was added to alternative wells of the Opti-plate row, which would receive kinase reaction plus DMSO. This created the negative control. • 3. For the JNK2 and JNK3 assay, compounds were prepared in six 2-fold dilutions with water and each concentration is tested in duplicate. For the JNK1 assay compounds are prepared in four 5-fold dilutions with water which are tested in triplicate. Controls were treated identically. • 4. […] per well of each compound concentration was transferred to an Opti-plate, in duplicate. • 5. 30 μl (JNK2/3 SPA) or 50 μl (JNK1 SPA) of substrate solution (25 mM HEPES pH 7.5, 10 mM magnesium acetate with 3.33 μM ATP (JNK2/3) or 2 μM ATP (JNK1), approximately 7.5 kBq [γ-^33P] ATP, GST-c-Jun, in water) was added to each well. • 6. 50 μl (JNK2/3 SPA) or 30 μl (JNK1 SPA) of kinase solution (JNK in 25 mM HEPES pH 7.5, 10 mM Mg Acetate) was added to each well.
• 7. The plate was incubated for 30 minutes at room temperature. • 8. 100 μl of bead/stop solution was added to each well (5 mg/ml glutathione-PVT-SPA beads, 40 mM ATP in PBS). • 9. Plates were sealed and incubated for 30 minutes at room temperature, centrifuged for 10 minutes at 2500 g and counted. • 10. The IC50 values were calculated as the concentration of the compound being tested at which the phosphorylation of c-Jun was decreased to 50% of the control value.

Sequence of JNK3 (P53779 whole entry, species assumed): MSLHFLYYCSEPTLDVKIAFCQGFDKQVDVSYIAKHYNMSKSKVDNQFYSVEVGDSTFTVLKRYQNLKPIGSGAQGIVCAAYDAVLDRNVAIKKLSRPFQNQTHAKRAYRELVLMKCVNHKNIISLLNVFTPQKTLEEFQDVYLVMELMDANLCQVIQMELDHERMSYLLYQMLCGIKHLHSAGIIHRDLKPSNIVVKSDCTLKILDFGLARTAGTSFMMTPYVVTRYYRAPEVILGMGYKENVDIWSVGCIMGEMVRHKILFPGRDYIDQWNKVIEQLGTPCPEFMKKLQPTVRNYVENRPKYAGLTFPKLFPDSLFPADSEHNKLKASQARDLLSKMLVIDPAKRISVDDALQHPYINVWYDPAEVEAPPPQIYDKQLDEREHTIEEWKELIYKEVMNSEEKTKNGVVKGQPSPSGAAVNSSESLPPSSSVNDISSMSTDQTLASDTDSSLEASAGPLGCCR

Row | IC50 | Structure (SMILES)
1 | 1700 nM | Cn1cc(-c2n[nH]c3ncc(C4CCCCC4)cc23)cn1 [Example 1, 5-cyclohexyl-3-(1-methyl-1H-pyrazol-4-yl)-1H-pyrazolo[3,4-b]pyridine]
2 | > 2000 nM | Cn1cc(-c2n[nH]c3ncc([C@H]4CC[C@H](N5CCCOCC5)CC4)cc23)cn1 [Example 2, 4-((1r,4r)-4-(3-(1-methyl-1H-pyrazol-4-yl)-1H-pyrazolo[3,4-b]pyridin-5-yl)cyclohexyl)-1,4-oxazepane]
3 | > 2000 nM | Cn1cc(-c2n[nH]c3ncc([C@H]4CC[C@@H](N5CCCOCC5)CC4)cc23)cn1 [Example 3, 4-((1s,4s)-4-(3-(1-methyl-1H-pyrazol-4-yl)-1H-pyrazolo[3,4-b]pyridin-5-yl)cyclohexyl)-1,4-oxazepane]
4 | 178 nM | Cn1cc(-c2c[nH]c3ncc(C4CCCCC4)nc23)cn1 [Example 4, 2-cyclohexyl-7-(1-methyl-1H-pyrazol-4-yl)-5H-pyrrolo[3,2-b]pyrazine]
